Results published in patent publication US10662229B2, “Spider venom peptides and methods of use for modulating sodium channels” (priority 2016, dated 2020).
Where a SMILES comes first, the peptide text is derived from it. Bridges are numbered along the chain shown (N, C = ends). [ ]: non-standard residue; d: D form. Nle = CCCC[C@H](N)C(=O)O

Legend:
Format in all cases: cell-based
hNav1.8 = target: T1, hNav1.8 (Homo sapiens, UniProt Q9Y5Y9); test: FLIPR membrane potential assay, hNav1.8; conditions: for Selectivity for Nav1.7, Nav subtype 1.8: membrane potential assay
T1 construct: host or cells: HEK293
Procedure: (§1) HEK293 cells stably expressing hNav1.1, hNav1.2, hNav1.3, hNav1.4, hNav1.5, hNav1.6, hNav1.7 and […] (SB Drug Discovery, Glasgow, UK) were cultured in minimum essential media (MEM) containing 10% v/v FBS supplemented with L-glutamine (2 mM) and selection antibiotics G-418 (0.5 mg/mL), blasticidin (2-4 μg/mL) and zeocin (0.5 mg/mL) as recommended by the manufacturer. CHO cells stably expressing hNav1.8 in a tetracycline-inducible system (Chantest, OH, USA) were cultured in Ham's F-12 containing 10% v/v FBS and selection antibiotics as recommended by the manufacturer. To induce hNav1.8 expression, cells were cultured in the presence of tetracycline (1 μg/mL) for 24 h at 27° C. Cells were grown in a humidified 5% CO2 incubator at 37° C., grown to 70-80% confluence, and passaged every 3-4 days using TrypLE Express (Invitrogen).
(§2) Cells were plated 48 h before the assay on 384-well black walled imaging plates at a density of 10,000 to 15,000 cells per well and were loaded with red membrane potential dye for 30 min at 37° C. (Molecular Devices, CA, USA). One vial of bulk red membrane potential dye was reconstituted to a 10× stock solution with PSS and stored at −20° C. and diluted to 1× solution with PSS on the day of the assay. […] Changes in membrane potential were assessed using the FLIPR^TETRA (excitation 515 to 545 nm, emission 565 to 625 nm) every second for 300 s after adding agonists.

hNav1.1 = target: T2, hNav1.1 (Homo sapiens, UniProt P35498); test: FLIPR membrane potential assay, hNav1.1; conditions: for Selectivity for Nav1.7, Nav subtype 1.1: membrane potential assay
T2 construct: host or cells: HEK293
Procedure: as §1, §2

hNav1.3 = target: T3, hNav1.3 (Homo sapiens, UniProt Q9NY46); test: FLIPR membrane potential assay, hNav1.3; conditions: for Selectivity for Nav1.7, Nav subtype 1.3: membrane potential assay
T3 construct: host or cells: HEK293
Procedure: as §1, §2

hNav1.4 = target: T4, hNav1.4 (Homo sapiens, UniProt P35499); test: FLIPR membrane potential assay, hNav1.4; conditions: for Selectivity for Nav1.7, Nav subtype 1.4: membrane potential assay
T4 construct: host or cells: HEK293
Procedure: as §1, §2

hNav1.2 = target: T5, hNav1.2 (Homo sapiens, UniProt Q99250); test: FLIPR membrane potential assay, hNav1.2; conditions: for Selectivity for Nav1.7, Nav subtype 1.2: membrane potential assay
T5 construct: host or cells: HEK293
Procedure: as §1, §2

hNav1.5 = target: T6, hNav1.5 (Homo sapiens, UniProt Q14524); test: FLIPR membrane potential assay, hNav1.5; conditions: for Selectivity for Nav1.7, Nav subtype 1.5: membrane potential assay
T6 construct: host or cells: HEK293
Procedure: as §1, §2

hNav1.6 = target: T7, hNav1.6 (Homo sapiens, UniProt Q9UQD0); test: FLIPR membrane potential assay, hNav1.6; conditions: for Selectivity for Nav1.7, Nav subtype 1.6: membrane potential assay
T7 construct: host or cells: HEK293
Procedure: as §1, §2

hNav1.7 = target: T8, hNav1.7 (Homo sapiens, UniProt Q15858); test: FLIPR membrane potential assay, hNav1.7; conditions: for Selectivity for Nav1.7, Nav subtype 1.7: membrane potential assay, reference subtype
T8 construct: host or cells: HEK293
Procedure: as §1, §2

T4 sequence (P35499 whole entry): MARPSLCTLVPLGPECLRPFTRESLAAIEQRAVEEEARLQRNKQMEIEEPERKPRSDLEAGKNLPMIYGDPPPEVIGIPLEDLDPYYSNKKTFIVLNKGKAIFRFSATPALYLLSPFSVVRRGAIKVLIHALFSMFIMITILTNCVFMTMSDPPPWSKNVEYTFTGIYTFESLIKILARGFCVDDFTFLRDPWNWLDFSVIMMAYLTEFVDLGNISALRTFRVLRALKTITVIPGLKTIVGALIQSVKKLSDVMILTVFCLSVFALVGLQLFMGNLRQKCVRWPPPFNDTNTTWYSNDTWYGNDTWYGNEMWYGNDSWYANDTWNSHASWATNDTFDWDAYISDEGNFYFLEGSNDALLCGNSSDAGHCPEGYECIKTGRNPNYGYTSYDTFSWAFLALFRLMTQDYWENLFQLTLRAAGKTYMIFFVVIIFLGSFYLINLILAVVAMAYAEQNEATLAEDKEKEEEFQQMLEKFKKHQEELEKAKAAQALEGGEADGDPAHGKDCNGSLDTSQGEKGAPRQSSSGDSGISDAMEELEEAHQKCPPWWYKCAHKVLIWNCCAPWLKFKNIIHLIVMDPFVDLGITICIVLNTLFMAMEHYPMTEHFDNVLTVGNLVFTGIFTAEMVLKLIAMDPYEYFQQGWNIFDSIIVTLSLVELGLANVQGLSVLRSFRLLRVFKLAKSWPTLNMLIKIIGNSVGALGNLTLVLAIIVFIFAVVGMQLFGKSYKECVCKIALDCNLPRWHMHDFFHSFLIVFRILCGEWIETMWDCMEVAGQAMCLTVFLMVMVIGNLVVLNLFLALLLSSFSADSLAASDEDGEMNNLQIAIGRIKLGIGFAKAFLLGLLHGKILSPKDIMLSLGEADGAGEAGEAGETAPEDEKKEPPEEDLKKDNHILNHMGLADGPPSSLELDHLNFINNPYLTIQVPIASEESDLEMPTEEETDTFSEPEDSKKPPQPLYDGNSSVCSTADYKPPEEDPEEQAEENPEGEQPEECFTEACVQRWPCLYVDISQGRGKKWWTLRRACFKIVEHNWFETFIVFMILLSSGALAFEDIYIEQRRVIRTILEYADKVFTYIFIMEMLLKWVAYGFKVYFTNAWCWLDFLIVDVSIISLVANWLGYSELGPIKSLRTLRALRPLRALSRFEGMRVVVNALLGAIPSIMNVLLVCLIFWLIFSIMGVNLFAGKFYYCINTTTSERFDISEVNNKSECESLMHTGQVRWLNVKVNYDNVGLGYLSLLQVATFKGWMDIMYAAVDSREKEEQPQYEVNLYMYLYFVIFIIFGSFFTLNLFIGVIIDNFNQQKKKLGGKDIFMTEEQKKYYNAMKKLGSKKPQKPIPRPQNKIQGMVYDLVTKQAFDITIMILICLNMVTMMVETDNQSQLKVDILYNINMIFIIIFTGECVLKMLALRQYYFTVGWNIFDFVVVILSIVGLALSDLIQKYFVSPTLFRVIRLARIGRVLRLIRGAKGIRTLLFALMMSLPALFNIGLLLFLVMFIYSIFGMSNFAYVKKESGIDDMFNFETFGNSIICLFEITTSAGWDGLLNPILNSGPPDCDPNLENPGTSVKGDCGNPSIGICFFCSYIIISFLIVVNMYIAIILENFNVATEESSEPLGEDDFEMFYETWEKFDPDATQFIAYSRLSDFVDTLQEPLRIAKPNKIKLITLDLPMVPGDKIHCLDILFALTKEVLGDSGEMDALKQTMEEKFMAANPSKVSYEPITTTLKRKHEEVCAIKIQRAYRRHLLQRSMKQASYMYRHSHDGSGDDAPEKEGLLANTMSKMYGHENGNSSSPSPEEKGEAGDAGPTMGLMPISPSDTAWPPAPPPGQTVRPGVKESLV
T3 sequence (Q9NY46 whole entry): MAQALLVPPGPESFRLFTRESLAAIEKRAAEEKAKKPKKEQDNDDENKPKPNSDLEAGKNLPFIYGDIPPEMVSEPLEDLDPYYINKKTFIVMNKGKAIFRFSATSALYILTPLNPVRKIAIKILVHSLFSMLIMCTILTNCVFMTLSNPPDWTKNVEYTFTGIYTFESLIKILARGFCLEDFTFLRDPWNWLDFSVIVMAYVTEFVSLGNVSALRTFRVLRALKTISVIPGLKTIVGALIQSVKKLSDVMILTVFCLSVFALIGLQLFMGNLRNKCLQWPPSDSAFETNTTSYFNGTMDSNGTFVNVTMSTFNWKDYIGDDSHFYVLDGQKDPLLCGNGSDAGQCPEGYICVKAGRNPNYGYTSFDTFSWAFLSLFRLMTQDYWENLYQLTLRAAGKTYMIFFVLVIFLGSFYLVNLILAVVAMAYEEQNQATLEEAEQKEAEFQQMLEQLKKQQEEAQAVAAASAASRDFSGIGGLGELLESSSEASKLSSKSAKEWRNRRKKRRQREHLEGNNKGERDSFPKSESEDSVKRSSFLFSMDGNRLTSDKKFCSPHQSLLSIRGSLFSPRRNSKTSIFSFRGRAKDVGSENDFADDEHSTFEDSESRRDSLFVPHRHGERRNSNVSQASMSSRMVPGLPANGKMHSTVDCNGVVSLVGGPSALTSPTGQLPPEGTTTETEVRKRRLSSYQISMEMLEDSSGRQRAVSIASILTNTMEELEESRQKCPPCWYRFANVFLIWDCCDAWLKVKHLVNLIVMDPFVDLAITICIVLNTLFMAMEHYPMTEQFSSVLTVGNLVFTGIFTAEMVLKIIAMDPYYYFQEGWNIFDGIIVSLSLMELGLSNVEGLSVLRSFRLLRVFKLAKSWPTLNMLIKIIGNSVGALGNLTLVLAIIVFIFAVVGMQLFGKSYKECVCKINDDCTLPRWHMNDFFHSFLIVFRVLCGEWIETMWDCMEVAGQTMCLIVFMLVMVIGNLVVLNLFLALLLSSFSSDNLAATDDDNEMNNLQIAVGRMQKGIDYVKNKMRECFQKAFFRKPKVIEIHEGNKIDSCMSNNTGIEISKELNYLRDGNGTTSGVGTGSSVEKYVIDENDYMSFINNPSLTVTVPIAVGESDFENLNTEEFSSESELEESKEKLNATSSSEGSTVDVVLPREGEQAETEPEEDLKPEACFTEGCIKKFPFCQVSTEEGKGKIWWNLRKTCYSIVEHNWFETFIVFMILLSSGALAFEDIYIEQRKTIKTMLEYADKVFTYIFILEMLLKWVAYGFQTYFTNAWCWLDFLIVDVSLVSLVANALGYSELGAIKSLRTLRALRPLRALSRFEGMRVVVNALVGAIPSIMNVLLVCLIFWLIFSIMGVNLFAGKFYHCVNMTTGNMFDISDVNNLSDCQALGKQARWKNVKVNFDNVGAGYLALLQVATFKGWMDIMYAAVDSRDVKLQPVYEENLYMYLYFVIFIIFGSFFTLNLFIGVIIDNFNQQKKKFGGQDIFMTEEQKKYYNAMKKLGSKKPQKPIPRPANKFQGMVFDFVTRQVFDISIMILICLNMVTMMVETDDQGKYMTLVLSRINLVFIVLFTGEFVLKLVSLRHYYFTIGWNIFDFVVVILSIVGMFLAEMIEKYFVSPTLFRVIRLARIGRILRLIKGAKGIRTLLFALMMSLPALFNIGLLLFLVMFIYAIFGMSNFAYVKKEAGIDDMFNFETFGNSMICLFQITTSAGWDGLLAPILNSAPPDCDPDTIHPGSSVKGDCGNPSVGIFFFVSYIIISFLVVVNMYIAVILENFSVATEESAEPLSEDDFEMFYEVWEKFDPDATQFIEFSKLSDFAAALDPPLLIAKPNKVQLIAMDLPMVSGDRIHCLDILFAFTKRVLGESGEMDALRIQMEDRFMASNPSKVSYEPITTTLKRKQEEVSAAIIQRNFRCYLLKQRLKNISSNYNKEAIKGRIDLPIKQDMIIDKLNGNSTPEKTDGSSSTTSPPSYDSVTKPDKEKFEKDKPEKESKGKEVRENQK

| SMILES | IC50 (hNav1.8) | Selectivity for Nav1.7, Nav subtype 1.8 (hNav1.8) | IC50 (hNav1.1) | Selectivity for Nav1.7, Nav subtype 1.1 (hNav1.1) | IC50 (hNav1.3) | Selectivity for Nav1.7, Nav subtype 1.3 (hNav1.3) | IC50 (hNav1.4) | Selectivity for Nav1.7, Nav subtype 1.4 (hNav1.4) | IC50 (hNav1.2) | Selectivity for Nav1.7, Nav subtype 1.2 (hNav1.2) | IC50 (hNav1.5) | Selectivity for Nav1.7, Nav subtype 1.5 (hNav1.5) | IC50 (hNav1.6) | Selectivity for Nav1.7, Nav subtype 1.6 (hNav1.6) | IC50 (hNav1.7) | Selectivity for Nav1.7, Nav subtype 1.7 (hNav1.7) |
| --- | --- | --- | --- | --- | --- | --- | --- | --- | --- | --- | --- | --- | --- | --- | --- | --- |
| CSCC[C@@H]1NC(=O)[C@H](Cc2ccc(O)cc2)NC(=O)[C@H](CCCNC(=N)N)NC(=O)[C@@H](NC(=O)[C@@H](N)CC(=O)O)CSSC[C@@H]2NC(=O)[C@@H]3CSSC[C@@H](C(=O)N[C@@H](C)C(=O)N[C@@H](Cc4c[nH]c5ccccc45)C(=O)N[C@@H](CC(=O)O)C(=O)N[C@@H](Cc4ccccc4)C(=O)N[C@H](C(=O)N[C@@H](Cc4ccccc4)C(=O)N[C@H](C(=O)O)[C@@H](C)O)[C@@H](C)O)NC(=O)[C@H](Cc4ccc(O)cc4)NC(=O)[C@H](CCCCN)NC(=O)[C@H](CCSC)NC(=O)[C@H](CCCCN)NC(=O)[C@H](CCCNC(=N)N)NC(=O)[C@H](CCCCN)NC(=O)[C@H](CSSC[C@H](NC(=O)[C@H](CC(N)=O)NC(=O)CNC(=O)[C@H](Cc4ccccc4)NC1=O)C(=O)N[C@@H](CCC(=O)O)C(=O)N[C@@H](CCCCN)C(=O)N[C@@H](CC(=O)O)C(=O)N[C@@H](CCC(=O)O)C(=O)N[C@@H](CC(=O)O)C(=O)N3)NC(=O)CNC(=O)[C@H](CC(C)C)NC(=O)[C@H](Cc1c[nH]cn1)NC(=O)[C@H](CCCCN)NC2=O [[D8N]Pnc1a] (H-DCRYMFGNCEKDEDCCKHLGCKRKMKYCAWDFTFT-OH; disulfide 2-16, 9-21, 15-28) | > 30 µM | >1000 | 0.349 µM | 14 | 3 µM | 118 | 0.852 µM | 35 | 0.147 µM | 6 | > 30 µM | >1000 | > 30 µM | >1000 | 0.024 µM | 1 |
| CCCC[C@@H]1NC(=O)[C@H](Cc2ccc(O)cc2)NC(=O)[C@H](CCCNC(=N)N)NC(=O)[C@@H](NC(=O)[C@@H](N)CC(=O)O)CSSC[C@@H]2NC(=O)[C@@H]3CSSC[C@@H](C(=O)N[C@@H](C)C(=O)N[C@@H](Cc4c[nH]c5ccccc45)C(=O)N[C@@H](CC(=O)O)C(=O)N[C@@H](Cc4ccccc4)C(=O)N[C@H](C(=O)N[C@@H](Cc4ccccc4)C(=O)N[C@H](C(=O)O)[C@@H](C)O)[C@@H](C)O)NC(=O)[C@H](Cc4ccc(O)cc4)NC(=O)[C@H](CCCCN)NC(=O)[C@H](CCCC)NC(=O)[C@H](CCCCN)NC(=O)[C@H](CCCNC(=N)N)NC(=O)[C@H](CCCCN)NC(=O)[C@H](CSSC[C@H](NC(=O)[C@H](CC(=O)O)NC(=O)CNC(=O)[C@H](Cc4ccccc4)NC1=O)C(=O)N[C@@H](CCC(=O)O)C(=O)N[C@@H](CCCCN)C(=O)N[C@@H](CC(=O)O)C(=O)N[C@@H](CCC(=O)O)C(=O)N[C@@H](CC(=O)O)C(=O)N3)NC(=O)CNC(=O)[C@H](CC(C)C)NC(=O)[C@H](Cc1c[nH]cn1)NC(=O)[C@H](CCCCN)NC2=O [[M5,25Nle]Pnc1a] (H-DCRY[Nle]FGDCEKDEDCCKHLGCKRK[Nle]KYCAWDFTFT-OH; disulfide 2-16, 9-21, 15-28) | > 30 µM | >260 | 2 µM | 17 | 1 µM | 10 | 3 µM | 22 | 0.773 µM | 7 | > 30 µM | >260 | 5 µM | 41 | 0.116 µM | 1 |
| CSCC[C@@H]1NC(=O)[C@H](Cc2ccc(O)cc2)NC(=O)[C@H](CCCNC(=N)N)NC(=O)[C@@H](NC(=O)[C@@H](N)CC(=O)O)CSSC[C@@H]2NC(=O)[C@@H]3CSSC[C@@H](C(=O)N[C@@H](C)C(=O)N[C@@H](Cc4c[nH]c5ccccc45)C(=O)N[C@@H](CC(=O)O)C(=O)N[C@@H](Cc4ccccc4)C(=O)N[C@H](C(=O)N[C@@H](Cc4ccccc4)C(=O)N[C@H](C(=O)O)[C@@H](C)O)[C@@H](C)O)NC(=O)[C@H](Cc4ccc(O)cc4)NC(=O)[C@H](CCCCN)NC(=O)[C@H](CCSC)NC(=O)[C@H](CCCCN)NC(=O)[C@H](CCCCN)NC(=O)[C@H](CCCCN)NC(=O)[C@H](CSSC[C@H](NC(=O)[C@H](CC(=O)O)NC(=O)CNC(=O)[C@H](Cc4ccccc4)NC1=O)C(=O)N[C@@H](CCC(=O)O)C(=O)N[C@@H](CCCCN)C(=O)N[C@@H](CC(=O)O)C(=O)N[C@@H](CCC(=O)O)C(=O)N[C@@H](CC(=O)O)C(=O)N3)NC(=O)CNC(=O)[C@H](CC(C)C)NC(=O)[C@H](Cc1c[nH]cn1)NC(=O)[C@H](CCCCN)NC2=O [[R23K]Pnc1a] (H-DCRYMFGDCEKDEDCCKHLGCKKKMKYCAWDFTFT-OH; disulfide 2-16, 9-21, 15-28) | > 30 µM | >120 | 8 µM | 33 | 5 µM | 19 | 10 µM | 40 | 3 µM | 14 | > 30 µM | >120 | 16 µM | 63 | 0.251 µM | 1 |
| CSCC[C@@H]1NC(=O)[C@H](C)NC(=O)[C@H](CCCNC(=N)N)NC(=O)[C@@H](NC(=O)[C@@H](N)CC(=O)O)CSSC[C@@H]2NC(=O)[C@@H]3CSSC[C@@H](C(=O)N[C@@H](C)C(=O)N[C@@H](Cc4c[nH]c5ccccc45)C(=O)N[C@@H](CC(=O)O)C(=O)N[C@@H](Cc4ccccc4)C(=O)N[C@H](C(=O)N[C@@H](Cc4ccccc4)C(=O)N[C@H](C(=O)O)[C@@H](C)O)[C@@H](C)O)NC(=O)[C@H](Cc4ccc(O)cc4)NC(=O)[C@H](CCCCN)NC(=O)[C@H](CCSC)NC(=O)[C@H](CCCCN)NC(=O)[C@H](CCCNC(=N)N)NC(=O)[C@H](CCCCN)NC(=O)[C@H](CSSC[C@H](NC(=O)[C@H](CC(=O)O)NC(=O)CNC(=O)[C@H](Cc4ccccc4)NC1=O)C(=O)N[C@@H](CCC(=O)O)C(=O)N[C@@H](CCCCN)C(=O)N[C@@H](CC(=O)O)C(=O)N[C@@H](CCC(=O)O)C(=O)N[C@@H](CC(=O)O)C(=O)N3)NC(=O)CNC(=O)[C@H](CC(C)C)NC(=O)[C@H](Cc1c[nH]cn1)NC(=O)[C@H](CCCCN)NC2=O [[Y4A]Pnc1a] (H-DCRAMFGDCEKDEDCCKHLGCKRKMKYCAWDFTFT-OH; disulfide 2-16, 9-21, 15-28) | > 30 µM | >30 | 17 µM | 19 | 20 µM | 22 | 12 µM | 12 | 8 µM | 8 | 18 µM | 20 | > 30 µM | >30 | 0.934 µM | 1 |
| CSCC[C@@H]1NC(=O)[C@H](Cc2ccc(O)cc2)NC(=O)[C@H](CCCNC(=N)N)NC(=O)[C@@H](NC(=O)[C@@H](N)CC(=O)O)CSSC[C@@H]2NC(=O)[C@@H]3CSSC[C@@H](C(=O)N[C@@H](C)C(=O)N[C@@H](Cc4c[nH]c5ccccc45)C(=O)N[C@@H](CC(=O)O)C(=O)N[C@@H](Cc4ccccc4)C(=O)N[C@H](C(=O)N[C@@H](Cc4ccccc4)C(=O)N[C@H](C(=O)O)[C@@H](C)O)[C@@H](C)O)NC(=O)[C@H](Cc4ccc(O)cc4)NC(=O)[C@H](CCCCN)NC(=O)[C@H](CCSC)NC(=O)[C@H](CCCCN)NC(=O)[C@H](CCCNC(=N)N)NC(=O)[C@H](CCCCN)NC(=O)[C@H](CSSC[C@H](NC(=O)[C@H](CC(=O)O)NC(=O)CNC(=O)[C@H](Cc4ccccc4)NC1=O)C(=O)N[C@@H](CCC(=O)O)C(=O)N[C@@H](CCCCN)C(=O)N[C@@H](CC(=O)O)C(=O)N[C@@H](C)C(=O)N[C@@H](CC(=O)O)C(=O)N3)NC(=O)CNC(=O)[C@H](CC(C)C)NC(=O)[C@H](Cc1c[nH]cn1)NC(=O)[C@H](CCCCN)NC2=O [[E13A]Pnc1a] (H-DCRYMFGDCEKDADCCKHLGCKRKMKYCAWDFTFT-OH; disulfide 2-16, 9-21, 15-28) | > 30 µM | >217 | 4 µM | 29 | 2 µM | 18 | 5 µM | 36 | 0.566 µM | 4 | > 30 µM | >217 | 8 µM | 61 | 0.139 µM | 1 |
